Test results: US20100233272A1 (priority 2007, published 2010)
Converted amounts (≈) assume the structure as drawn.

How the values were obtained:
[1] = in vitro dissolution test of solubility-improved forms in MFD solution (microcentrifuge); type: physicochemical; conditions: MFD solution (PBS pH 6.5, 0.5 wt % NaTC/POPC), 37° C., 1000 μgA/mL if all dissolved
Procedure: An in vitro dissolution test was used to determine the dissolution performance of the HPMCAS SDD. […] The test was run in duplicate. The test tubes were placed in a 37° c. temperature-controlled chamber, and an MFD solution consisting of 1.8 mL PBS at pH 6.5 and 290 mosm/kg, containing 7.3 mm sodium taurocholic acid and 1.4 mm of 1-palmitoyl-2-oleyl-sn-glycero-3-phosphocholine (0.5 wt % NaTC/POPC) was added to each tube. The samples were mixed with a vortex mixer for one minute, then centrifuged at 13,000 g and 37° C. for one minute. The resulting supernatant solution was then sampled and diluted 1:5 (by volume) with methanol and analyzed by high-performance liquid chromatography (HPLC). HPLC analysis was performed using a Zorbax SB-C8 column. The mobile phase consisted of 45% 5 mm triethanolamine, adjusted to pH 7.0, and 55% acetonitrile, with a flow rate of 1.5 mL/min. UV absorbance was measured at 254 nm. The contents of each tube were mixed on the vortex mixer and allowed to stand undisturbed at 37° C. until the next sample was taken. Samples were collected at 4, 10, 20, 40, 90, and 1200 minutes.
The concentrations of drug obtained in these samples were used to determine the maximum dissolved concentration of drug and the area under the concentration-versus-time curve during the initial 90 minutes (MDC90 and DAUC90, respectively). […]

[2] = in vitro membrane permeation test (maximum drug flux); type: physicochemical; conditions: MFD feed solution 1000 μg/mL, permeate 20 wt % decanol in decane, 37° C., fit 0 to 60 minutes
Procedure: The NP composition was evaluated in vitro using a membrane permeation test as follows. An Accurel® PP 1 E microporous polypropylene membrane was obtained from Membrana GmbH (Wuppertal, Germany). The membrane was washed in isopropyl alcohol and rinsed in methanol in a sonicating bath for one minute at ambient temperature, and then allowed to air dry at ambient temperature. The feed side of the membrane was then plasma-treated to render it hydrophilic by placing a sample of the membrane in a plasma chamber. The atmosphere of the plasma chamber was saturated with water vapor at a pressure of 550 mTorr. A plasma was then generated using radio frequency (RF) power inductively coupled into the chamber via annular electrodes at a power setting of 50 Watts for 45 seconds. The contact angle of a drop of water placed on the surface of the plasma-treated membrane was about 40°. […]
To form the feed solution, a 13.33 mg sample of the solid NP composition was weighed into the feed reservoir. […] Samples were then diluted in 250 μL IPA and analyzed using HPLC. […] UV absorbance was measured at 254 nm.
The maximum flux of drug across the membrane (in units of μg/cm^2-min) was determined by performing a least-squares fit to the concentration versus time data from 0 to 60 minutes to obtain the slope, multiplying the slope by the permeate volume (5 mL), and dividing by the membrane area (4.9 cm^2).

physchem = conditions: pH 7, aqueous buffer
[3] = GastroPlus (ACAT) simulation of absorption and pharmacokinetics; conditions: estimated based on clinical data
From the text: GastroPlus™ is a computer program that simulates absorption and pharmacokinetics for orally dosed drugs.
GastroPlus™ was used to simulate the absorption and pharmacokinetics of the reference and test formulations.
The drug release profiles were used by the software to calculate the drug concentration in each compartment. The estimated human permeability data were computed using a modification of the human fasted log D absorption model to account for permeability. The model then calculated the fraction of the dose absorbed based on the ACAT model using drug concentration, permeability, surface area, and transit time in each compartment. Pharmacokinetic parameters, e.g. volume of distribution, clearance, and micro-constants were added to the software in the pharmacokinetic page, which enabled the software to calculate plasma concentration—time curves.
In the physiology page, a user-supplied physiology file was provided to the program as an input file, consisting of the following transit times for each compartment (hr): 0.1, 0.25, 0.5, 0.5, 1.0, 1.0, 1.0, 8.0, and 24.0 hr.
The model was used to evaluate the performance of the dosage forms of the invention.

| Compound | DAUC90 (area under the concentration-versus-time curve during the initial 90 minutes) [1] | MDC90 (maximum dissolved concentration of drug during the initial 90 minutes) [1] | Maximum Drug Flux [2] | solubility (physchem) | human permeability (Peff) [3] |
| --- | --- | --- | --- | --- | --- |
| Cc1ccc(-c2cc(C(F)(F)F)nn2-c2ccc(S(N)(=O)=O)cc2)cc1 [Crystalline celecoxib, celecoxib] | 4100 min*μgA/mL | 60 μgA/mL | 1.0 μg/cm^2-min | – | – |
| Cc1ccc(-c2cc(C(F)(F)F)nn2-c2ccc(S(N)(=O)=O)cc2)cc1 [celecoxib] | – | – | – | 11.6 µg/mL (≈ 30.4 µM) | 112.62 ×10⁻⁶ cm/s |
